# In ChEMBL document CHEMBL4043145, “Pyridine-pyrimidine amides that prevent HGF-induced epithelial scattering by two distinct mechanisms” (Bioorg Med Chem Lett, 2017):
# What was measured:
# Format in all cases: functional
# MFE-280 [1] = assay: Induction of apoptosis in human MFE280 cells assessed as viable cells at 300 nM by 7-AAD/Annexin staining-based assay (reference value: 84.9 to 87.7%); settings: read-out: Activity
# PC-3 [2] = assay: Induction of apoptosis in human p53-null PC3 cells assessed as late apoptotic cells at 300 nM by 7-AAD/Annexin staining-based assay (reference value: 0.4 to 1.6%)
# MCF7 [3] = assay: Induction of apoptosis in human MCF7 cells assessed as late apoptotic cells at 300 nM by 7-AAD/Annexin staining-based assay (reference value: 1 to 2.1%)
# MFE-296 [4] = assay: Induction of apoptosis in human MFE296 cells assessed as viable cells at 1000 nM by 7-AAD/Annexin staining-based assay (reference value: 90.9 to 94.4%); settings: read-out: Activity
# MFE-280 [5] = assay: Induction of apoptosis in human MFE280 cells assessed as viable cells at 1000 nM by 7-AAD/Annexin staining-based assay (reference value: 84.9 to 87.7%); settings: read-out: Activity
# MFE-296 [6] = assay: Induction of apoptosis in human MFE296 cells assessed as nuclear debris at 100 nM by 7-AAD/Annexin staining-based assay (reference value: 0.4 to 0.8%)
# PC-3 [7] = assay: Induction of apoptosis in human p53-null PC3 cells assessed as viable cells at 300 nM by 7-AAD/Annexin staining-based assay (reference value: 96.5 to 98.6%); settings: read-out: Activity
# PC-3 [8] = assay: Induction of apoptosis in human p53-null PC3 cells assessed as early apoptotic cells at 300 nM by 7-AAD/Annexin staining-based assay (reference value: 0.6 to 1.4%)
# MCF7 [9] = assay: Induction of apoptosis in human MCF7 cells assessed as viable cells at 300 nM by 7-AAD/Annexin staining-based assay (reference value: 92.6 to 96.8%); settings: read-out: Activity
# T47D [10] = assay: Induction of apoptosis in human T47D cells assessed as early apoptotic cells at 300 nM by 7-AAD/Annexin staining-based assay (reference value: 1.6 to 4.3%)
# T47D [11] = assay: Induction of apoptosis in human T47D cells assessed as late apoptotic cells at 100 nM by 7-AAD/Annexin staining-based assay (reference value: 3 to 13.4%)
# T47D [12] = assay: Induction of apoptosis in human T47D cells assessed as late apoptotic cells at 1000 nM by 7-AAD/Annexin staining-based assay (reference value: 3 to 13.4%)
# MFE-296 [13] = assay: Induction of apoptosis in human MFE296 cells assessed as early apoptotic cells at 1000 nM by 7-AAD/Annexin staining-based assay (reference value: 1.5 to 2.1%)
# A2780 [14] = assay: Induction of apoptosis in human A2780 cells assessed as late apoptotic cells at 100 nM by 7-AAD/Annexin staining-based assay (reference value: 1.2 to 2.2%)
# A2780 [15] = assay: Induction of apoptosis in human A2780 cells assessed as late apoptotic cells at 300 nM by 7-AAD/Annexin staining-based assay (reference value: 1.2 to 2.2%)
# MFE-296 [16] = assay: Induction of apoptosis in human MFE296 cells assessed as late apoptotic cells at 300 nM by 7-AAD/Annexin staining-based assay (reference value: 3.6 to 6.6%)
# PC-3 [17] = assay: Induction of apoptosis in human p53-null PC3 cells assessed as nuclear debris at 300 nM by 7-AAD/Annexin staining-based assay (reference value: 0.1 to 0.5%)
# T47D [18] = assay: Induction of apoptosis in human T47D cells assessed as viable cells at 1000 nM by 7-AAD/Annexin staining-based assay (reference value: 74.5 to 94.5%); settings: read-out: Activity
# T47D [19] = assay: Induction of apoptosis in human T47D cells assessed as viable cells at 100 nM by 7-AAD/Annexin staining-based assay (reference value: 74.5 to 94.5%); settings: read-out: Activity
# MFE-296 [20] = assay: Induction of apoptosis in human MFE296 cells assessed as viable cells at 100 nM by 7-AAD/Annexin staining-based assay (reference value: 90.9 to 94.4%); settings: read-out: Activity
# A2780 [21] = assay: Induction of apoptosis in human A2780 cells assessed as nuclear debris at 1000 nM by 7-AAD/Annexin staining-based assay (reference value: 0.3 to 1.1%)
# MFE-280 [22] = assay: Induction of apoptosis in human MFE280 cells assessed as nuclear debris at 1000 nM by 7-AAD/Annexin staining-based assay (reference value: 0.5 to 2.3%)
# A2780 [23] = assay: Induction of apoptosis in human A2780 cells assessed as nuclear debris at 100 nM by 7-AAD/Annexin staining-based assay (reference value: 0.3 to 1.1%)
# MCF7 [24] = assay: Induction of apoptosis in human MCF7 cells assessed as late apoptotic cells at 100 nM by 7-AAD/Annexin staining-based assay (reference value: 1 to 2.1%)
# PC-3 [25] = assay: Induction of apoptosis in human p53-null PC3 cells assessed as late apoptotic cells at 1000 nM by 7-AAD/Annexin staining-based assay (reference value: 0.4 to 1.6%)
# A2780 [26] = assay: Induction of apoptosis in human A2780 cells assessed as viable cells at 100 nM by 7-AAD/Annexin staining-based assay (reference value: 95 to 96.7%); settings: read-out: Activity
# MFE-280 [27] = assay: Induction of apoptosis in human MFE280 cells assessed as viable cells at 100 nM by 7-AAD/Annexin staining-based assay (reference value: 84.9 to 87.7%); settings: read-out: Activity
# PC-3 [28] = assay: Induction of apoptosis in human p53-null PC3 cells assessed as late apoptotic cells at 100 nM by 7-AAD/Annexin staining-based assay (reference value: 0.4 to 1.6%)
# T47D [29] = assay: Induction of apoptosis in human T47D cells assessed as late apoptotic cells at 300 nM by 7-AAD/Annexin staining-based assay (reference value: 3 to 13.4%)
# A2780 [30] = assay: Induction of apoptosis in human A2780 cells assessed as nuclear debris at 300 nM by 7-AAD/Annexin staining-based assay (reference value: 0.3 to 1.1%)
# MCF7 [31] = assay: Induction of apoptosis in human MCF7 cells assessed as early apoptotic cells at 300 nM by 7-AAD/Annexin staining-based assay (reference value: 2 to 2.7%)
# A2780 [32] = assay: Induction of apoptosis in human A2780 cells assessed as early apoptotic cells at 100 nM by 7-AAD/Annexin staining-based assay (reference value: 1.7 to 2.1%)
# PC-3 [33] = assay: Induction of apoptosis in human p53-null PC3 cells assessed as early apoptotic cells at 1000 nM by 7-AAD/Annexin staining-based assay (reference value: 0.6 to 1.4%)
# MCF7 [34] = assay: Induction of apoptosis in human MCF7 cells assessed as nuclear debris at 100 nM by 7-AAD/Annexin staining-based assay (reference value: 0.2 to 3%)
# MFE-296 [35] = assay: Induction of apoptosis in human MFE296 cells assessed as early apoptotic cells at 100 nM by 7-AAD/Annexin staining-based assay (reference value: 1.5 to 2.1%)
Structure (SMILES),viability at 0.3 µM (MFE-280 [1]),Activity (PC-3 [2]),Activity (MCF7 [3]),viability at 1 µM (MFE-296 [4]),viability at 1 µM (MFE-280 [5]),Activity (MFE-296 [6]),viability at 0.3 µM (PC-3 [7]),Activity (PC-3 [8]),viability at 0.3 µM (MCF7 [9]),Activity (T47D [10]),Activity (T47D [11]),Activity (T47D [12]),Activity (MFE-296 [13]),Activity (A2780 [14]),Activity (A2780 [15]),Activity (MFE-296 [16]),Activity (PC-3 [17]),viability at 1 µM (T47D [18]),viability at 0.1 µM (T47D [19]),viability at 0.1 µM (MFE-296 [20]),further results
O=C(Nc1ccc(-c2cccc(Cl)c2)cn1)c1cncnc1,84.4%,0.8%,3.1%,84.3%,85.1%,1.3%,98.2%,0.8%,92.4%,9.5%,2.3%,4.5%,3.7%,3.2%,3.5%,8.2%,0.2%,82.9%,92.4%,90.9%,Activity (A2780 [21]): 1.4%; Activity (MFE-280 [22]): 0.7%; Activity (A2780 [23]): 0.5%; Activity (MCF7 [24]): 1.9%; Activity (PC-3 [25]): 1.2%; viability at 0.1 µM (A2780 [26]): 92.7%; viability at 0.1 µM (MFE-280 [27]): 86.2%; Activity (PC-3 [28]): 0.4%; Activity (T47D [29]): 3.8%; Activity (A2780 [30]): 0.9%; Activity (MCF7 [31]): 4.1%; Activity (A2780 [32]): 3.6%; Activity (PC-3 [33]): 1.3%; Activity (MCF7 [34]): 0.4%; Activity (MFE-296 [35]): 2.1%
CN[C@@H]1C[C@H]2O[C@@](C)([C@@H]1OC)n1c3ccccc3c3c4c(c5c6ccccc6n2c5c31)C(=O)NC4 [STAUROSPORINE],57%,0.2%,7.9%,20.2%,47.5%,2.4%,98.6%,1%,83.6%,5.5%,2.4%,4.8%,4.4%,3.7%,8.5%,24.4%,0.1%,88.4%,95%,83.6%,Activity (A2780 [21]): 4.3%; Activity (MFE-280 [22]): 3.1%; Activity (A2780 [23]): 0.4%; Activity (MCF7 [24]): 3.1%; Activity (PC-3 [25]): 1.2%; viability at 0.1 µM (A2780 [26]): 90.5%; viability at 0.1 µM (MFE-280 [27]): 51.1%; Activity (PC-3 [28]): 0.7%; Activity (T47D [29]): 3.5%; Activity (A2780 [30]): 1%; Activity (MCF7 [31]): 7.4%; Activity (A2780 [32]): 5.4%; Activity (PC-3 [33]): 1.3%; Activity (MCF7 [34]): 0.6%; Activity (MFE-296 [35]): 7.5%
